Experimental findings from patent US8883169B2, “Immunogen platform” (Chrontech Pharma AB, priority 2007, dated 2014) are described below.

One data set concerns antibodies to rNS3. Briefly: EIA of antibodies to rNS3 after immunization with rNS3 with or without ribavirin. It is filed as in vivo, Balb/c mice. As for the experimental part: In a first set of experiments, groups of three to five Balb/c mice (BK Universal, Uppsala, Sweden) were immunized i.p or s.c. (e.g., at the base of the tail) with 10 μg or 100 μg of recombinant hepatitis C virus non-structural 3 (rNS3) protein. […] Mice were injected with a total volume of […] per injection.
At two and four weeks following i.p. immunization, all mice were bled by retro-orbital sampling. Serum samples were collected and analyzed for the presence of antibodies to rNS3. To determine the antibody titer, an enzyme immunoassay (EIA) was performed. (See e.g., Hultgren et al., J Gen Virol. 79:2381-91 (1998) and Hultgren et al., Clin. Diagn. Lab. Immunol. 4:630-632 (1997)). The antibody levels were recorded as the highest serum dilution giving an optical density at 405 nm more than twice that of non-immunized mice.
At four, six and eight weeks the mice were bled and serum was separated and frozen. After completion of the study, sera were tested for the levels of antibodies to recombinant NS3, as described above. Mean antibody levels to rNS3 were compared between the groups using Student's t-test (parametric analysis) or Mann-Whitney (non-parametric analysis) and the software package StatView 4.5 (Abacus Concepts, Berkeley, Calif.). […] The values given represent end point titres to recombinant rNS3.
The levels of antibody to the antigen were then determined by EIA.
A second set of experiments was also performed. […] The mice were bled at week six and rNS3-specific IgG levels were determined by EIA as described previously.

Another data set concerns antibodies to HBsAg. Briefly: EIA of antibody titer to HBsAg after Engerix vaccine with or without ribavirin. Type of data set: in vivo, mice. The note with it: 1 mg ribavirin, i.p., booster on week four, bled on week six. An excerpt:
(Engerix, SKB). […] A booster containing the same mixture was given on week four and all mice were bled on week six.

The test system of data set [1] is NS3-specific IgG1 and IgG2a antibodies. Briefly: EIA of NS3-specific IgG subclasses (IgG1, IgG2a). It is filed as in vivo, mice. The note with it: 10 μg rNS3 with 0.1 or 1.0 mg ribavirin i.p. at weeks 0 and 4, bled at week six.
In data set [2] the test system is CD4+ T cells of lymph nodes. Briefly: In vitro recall assay, CD4+ T cell proliferation by [3H]thymidine incorporation. Particulars: 100 μg rNS3 mixed with 1 mg ribavirin s.c.; ten days post-immunization; 96 h of culture. It is filed as cell-based, mice. The method, then: This assay can be used with any ribavirin derivative or combinations of ribavirin derivatives to determine the extent that a particular vaccine formulation modulates a cellular immune response. […] The mice were sacrificed ten days post-immunization and their lymph nodes were harvested and drained. In vitro recall assays were then performed. (See e.g., Hultgren et al., J Gen Virol. 79:2381-91 (1998) and Hultgren et al., Clin. Diagn. Lab. Immunol. 4:630-632 (1997)). The amount of CD4^+ T cell proliferation was determined at 96 h of culture by the incorporation of [^3H]thymidine.
In general terms: Uptake of a labelled nucleoside into DNA is a usual measure of proliferation.

In data set [3] the test system is NS3/4A-expressing EL-4 lymphoma cells. The data set is described as follows: In vivo inhibition of growth of NS3/4A-expressing EL-4 tumor cells. Particulars: C57BL/6 mice immunized only once. As for the experimental part: To confirm that inhibition of tumor growth using the NS3/4A-expressing EL-4 cell line is fully dependent on an NS3/4A-specific immune response a control experiment was performed. […] Two weeks after the last immunization the mice were challenged with an s.c. injection of 10^6 native EL-4 or NS3/4A-expressing EL-4 cells (NS3/4A-EL-4). An NS3/4A-specific immune response was required for protection, since only the immunized mice were protected against growth of the NS3/4A-EL-4 cell line (FIG. 10A). Thus, this H-2^b-restricted model behaves similarly to the SP2/0 H-2^d restricted model.
As set forth herein, the NS3/4A gene can be used as a vaccine. Although it had been determined that NS3/4A quickly primed in vivo functional CTLs, the effect of therapeutic immunization after the injection of tumor cells was analyzed next. Groups of ten C57BL/6 mice were challenged with 10^6 NS3/4A-EL-4 tumor cells. […]
In vivo challenge of immunized mice with the NS3/4A-expressing SP2/0 myeloma or EL-4 lymphoma cell line was performed according to the method described by Encke et al., supra. […] The kinetics of the tumor growth was determined by measuring the tumor size through the skin at days six to 20. […]
To test the therapeutic effect of the vaccines groups of mice were inoculated with the tumor cells as described above. […] The tumor growth was monitored from day 6 to day 20.

Another data set relates to IgE to Betv1. Briefly: ELISA of IgE antibodies on recombinant birch protein. It is filed as in vivo, C57/BL6 mice. The note with it: immunized twice, bled two weeks after the second immunization. The method, then:
(§1) Groups of C57/BL6 mice were immunized twice with 50 μg of either plasmid containing a codon optimized NS3/4A gene, a NS3/4A-Betv1 fusion gene containing a protease cleavage site between NS3 and NS4A as well as a protease cleavage site between the NS4A and the birch antigen (SEQ ID NO: 1380), or a NS3/4A-Betv1 fusion gene containing a protease cleavage site between NS3 and NS4A, a protease cleavage site between the NS4A and the birch antigen as well as two additional protease cleavage sites within the birch antigen (SEQ ID NO: 1381) using an electroporation device. Another group of mice were immunized twice with recombinant Betv1 protein (rBetv1) in Freunds incomplete adjuvant. The two immunizations were 4 weeks apart. The mice were bled two weeks after the second immunizations.
Dilutions of the sera were tested on ELISA plates coated with recombinant birch protein. A secondary antibody specific for IgE antibodies was used to detect bound antibody. […] The DNA constructs are thus not allergenic in that they prime a Th1 type response.
Background: An ELISA detects its analyte on a solid surface through an enzyme-linked reagent.

Data set [4] has as its system NS3 and birch specific T cells. The data set is described as follows: ELISpot assay of γ-IFN-secreting CTLs and T helper cells (NS3 and birch specific). It is filed as cell-based, C57/BL6 mice. Particulars: immunized twice, 4 weeks apart; two weeks after the second injection. The method, then:
as §1, with “sacrificed” for “bled”, “immunizations and the lymph nodes and spleens of each group were collected and analyzed.” for “immunizations.”
The presence of γ-IFN-secreting CTLs and T helper (Th) cells to antigens in splenocyte or lymph node cultures were evaluated using a commercially available ELISpot assay. […] The ability of NS3-specific and birch-specific Th and CTLs to produce γ-IFN recalled by a concanavalin-A (con-A) as a positive control, media alone as a negative control, native HBcAg, recombinant HBcAg (rHBcAg), various concentrations of NS3/4A CTL peptide, various concentrations of rNS3, and various concentrations of rBetv1 was analyzed via the ELISpot.

On to `NC(=O)c1ncn([C@@H]2O[C@H](CO)[C@@H](O)[C@H]2O)n1` [ribavirin, 1-β-D-ribofuranosyl-1,2,4-triazole-3-carboxamide], for which, in the data set with antibodies to rNS3 (20 μg rNS3, weeks 1 and 3), the “effect on antibody levels, higher doses (1-10 mg) of ribavirin” value is on record as “enhance antibody levels at week three” and the “effect on antibody levels, low doses (<1 mg) of ribavirin” value was “enhance antibody levels at week one but not at week three”. Also, the “antibody titer compared to formulations composed of only rNS3” value with antibodies to rNS3 (1 mg of ribavirin and either 10 μg or 100 μg of rNS3, two weeks post-immunization) was “significantly greater antibody titer”. Moreover, in the data set with antibodies to rNS3 (approximately 1 to 3 mg doses of ribavirin), the “immune response compared to that elicited without ribavirin” value is reported as “more than 12 times”. Besides, in the data set with antibodies to HBsAg, the “response to Engerix vaccine (HBsAg and alum)” value is listed as “enhanced the response to 2 μg of an existing vaccine”. In addition, the “effect on the IgG subclass response in the NS3-specific immune response” value in data set [1] is given as “does not change the IgG subclass response”. Also, the “T cell proliferative response compared to 100 μg rNS3 in PBS” value in data set [2] is listed as “much greater T cell proliferative response”.
For the molecule “GAVQNEVTL (Artificial Peptide, NS3/4A H-2D Binding Peptide) [NS3-derived CTL peptide]”, the “protection against growth of NS3/4A-EL-4 tumors after a single immunization” value in data set [3] is “not protected”.

B1: rBetv1: recombinant Betv1 protein (major Birch allergen) in Freunds incomplete adjuvant (protein, UniProt P15494 2-160, looked up)
Major pollen allergen Bet v …: GVFNYETETTSVIPAARLFKAFILDGDNLFPKVAPQAISSVENIEGNGGPGTIKKISFPEGFPFKYVKDRVDEVDHTNFKYNYSVIEGGPIGDTLEKISNEIKIVATPDGGSILKISNKYHTKGDHEVKAEQVKASKEMGETLLRAVESYLLAHSDAYN
modifications: in Freund's incomplete adjuvant
Regarding B1, the “priming of IgE to Betv1” value with IgE to Betv1 is given as “shows birch-specific IgE antibodies”. Besides, the “priming of IFN-γ producing Betv1-specific T cells” value in data set [4] was “fails to do”.
